Source: PubChem BioAssay AID1053134 (The Scripps Research Institute Molecular Screening Center, 2014)
Calls of active or inactive are those of the source. No rule for the calls is given here.

Target: methionyl-tRNA synthetase (Trypanosoma brucei brucei)
Assay: inhibition of trypanosomal methionyl-tRNA synthetase – biochemical, fluorescence polarization, dose response, round 3, orthogonal assay for T. brucei MetRS inhibitor project, late-stage follow-up (AID 1053134)
Settings: recombinant T. brucei MetRS

IC50, active:
CCN(CC)C(=O)C(=O)c1cn(CC(=O)Nc2cc(Oc3ccccc3)cc(C(F)(F)F)c2)c2ccccc12 145 nM
CCN(CC)C(=O)C(=O)c1cn(CC(=O)Nc2cc(Oc3ccc(OC)cc3)cc(C(F)(F)F)c2)c2ccccc12 477 nM
CCN(CC)C(=O)C(=O)c1cn(CC(=O)Nc2cc(Oc3ccc(F)cc3)cc(C(F)(F)F)c2)c2ccccc12 632 nM
CCN(CC)C(=O)C(=O)c1cn(CC(=O)Nc2cc(Oc3ccccc3F)cc(C(F)(F)F)c2)c2ccccc12 381 nM
CCN(CC)C(=O)C(=O)c1cn(CC(=O)Nc2cccc(C(F)(F)F)c2)c2ccccc12 360 nM
CCN(CC)C(=O)C(=O)c1cn(CC(=O)Nc2cc(Oc3ccccc3OC)cc(C(F)(F)F)c2)c2ccccc12 521 nM
Nc1c(Cl)ncnc1Nc1ccc(C(=O)O)cc1 8500 nM

IC50, inactive:
O=C(Cc1ccc(Nc2nc3ccc(Br)cc3[nH]2)cc1)NCCc1cccs1
CCN(CC)C(=O)C(=O)c1cn(CCNc2cc(Oc3ccccc3)cc(C(F)(F)F)c2)c2ccccc12 > 119000 nM
CCN(CC)C(=O)Cc1cn(CC(=O)Nc2cccc(C(F)(F)F)c2)c2ccccc12 > 119000 nM
CCN(CC)C(=O)C(=O)c1cn(CCNc2cccc(C(F)(F)F)c2)c2ccccc12 > 119000 nM
O=C(Cn1cc(C(=O)C(=O)NCc2ccccc2)c2ccccc21)Nc1cc(Oc2ccccc2)cc(C(F)(F)F)c1
